Values of other authors, collected in US20230117831A1, “MULTI-FUNCTIONAL CHIMERIC MOLECULES” (THE BROAD INSTITUTE, INC., priority 2020, published 2023).
Values joined by “and” are separate entries in the source; they are usually repeats but may differ in a detail not shown here. Equal values may be shown once. Read-outs that look alike come from different tables or passages of the source.

Columns and labels:
PKC beta = PKC beta (Homo sapiens, UniProt P05771); conditions: PKC beta; read-out: Kd; cited from earlier work
PKC delta = PKC delta (Homo sapiens, UniProt Q05655); conditions: PKC delta; read-out: Kd; cited from earlier work
PKC epsilon = target: T1, PKC epsilon (Homo sapiens, UniProt Q02156); conditions: PKC epsilon; read-out: Kd; cited from earlier work
T1 sequence (Q02156 1-737): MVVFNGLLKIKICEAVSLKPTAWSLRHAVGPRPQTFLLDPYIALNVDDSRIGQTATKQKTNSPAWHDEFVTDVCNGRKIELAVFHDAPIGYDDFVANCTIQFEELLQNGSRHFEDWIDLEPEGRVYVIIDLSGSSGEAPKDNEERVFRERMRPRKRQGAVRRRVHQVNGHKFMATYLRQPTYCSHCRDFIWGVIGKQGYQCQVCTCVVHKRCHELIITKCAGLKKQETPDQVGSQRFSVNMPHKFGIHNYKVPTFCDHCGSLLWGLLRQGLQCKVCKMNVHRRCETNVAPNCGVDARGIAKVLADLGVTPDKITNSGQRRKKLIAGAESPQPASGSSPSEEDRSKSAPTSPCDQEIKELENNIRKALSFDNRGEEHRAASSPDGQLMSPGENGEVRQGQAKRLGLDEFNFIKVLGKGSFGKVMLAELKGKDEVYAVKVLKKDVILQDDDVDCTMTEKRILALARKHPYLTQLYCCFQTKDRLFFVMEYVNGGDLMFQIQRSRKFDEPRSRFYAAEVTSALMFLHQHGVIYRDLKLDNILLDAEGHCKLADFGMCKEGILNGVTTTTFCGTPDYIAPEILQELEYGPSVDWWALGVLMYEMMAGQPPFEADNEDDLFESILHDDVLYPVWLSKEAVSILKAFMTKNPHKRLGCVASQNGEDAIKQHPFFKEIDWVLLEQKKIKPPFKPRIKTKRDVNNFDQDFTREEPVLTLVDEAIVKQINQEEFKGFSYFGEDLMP

PKCalpha = PKCalpha (Homo sapiens, UniProt P17252); conditions: cited from earlier work
PKC gamma = PKC gamma (Homo sapiens, UniProt P05129); conditions: cited from earlier work
AurB (AURKB) = AurB (AURKB) (Homo sapiens, UniProt Q96GD4); conditions: cited from earlier work
AurA (AURKA) = target: T2, AurA (AURKA) (Homo sapiens, UniProt O14965); conditions: cited from earlier work
T2 sequence (O14965 1-403): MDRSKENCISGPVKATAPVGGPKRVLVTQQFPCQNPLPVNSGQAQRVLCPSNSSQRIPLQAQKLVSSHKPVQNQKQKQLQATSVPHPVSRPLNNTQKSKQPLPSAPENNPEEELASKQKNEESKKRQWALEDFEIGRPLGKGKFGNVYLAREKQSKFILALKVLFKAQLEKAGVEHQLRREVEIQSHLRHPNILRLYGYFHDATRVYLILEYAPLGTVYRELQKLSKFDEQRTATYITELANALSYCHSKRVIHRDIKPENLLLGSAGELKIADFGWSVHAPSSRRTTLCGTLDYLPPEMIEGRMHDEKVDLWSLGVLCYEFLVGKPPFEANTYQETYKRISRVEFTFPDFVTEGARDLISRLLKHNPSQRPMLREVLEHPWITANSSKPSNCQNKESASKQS

PIK3Cγ = PIK3Cγ (Homo sapiens, UniProt P48736); conditions: cited from earlier work
PIK3Cα/PIK3R1 = PIK3Cα/PIK3R1 (Homo sapiens, UniProt P42336); conditions: cited from earlier work
PIK3Cδ/PIK3R1 = PIK3Cδ/PIK3R1 (Homo sapiens, UniProt O00329); conditions: cited from earlier work
Chain of PIK3Cδ/PIK3R1 (O00329 whole entry): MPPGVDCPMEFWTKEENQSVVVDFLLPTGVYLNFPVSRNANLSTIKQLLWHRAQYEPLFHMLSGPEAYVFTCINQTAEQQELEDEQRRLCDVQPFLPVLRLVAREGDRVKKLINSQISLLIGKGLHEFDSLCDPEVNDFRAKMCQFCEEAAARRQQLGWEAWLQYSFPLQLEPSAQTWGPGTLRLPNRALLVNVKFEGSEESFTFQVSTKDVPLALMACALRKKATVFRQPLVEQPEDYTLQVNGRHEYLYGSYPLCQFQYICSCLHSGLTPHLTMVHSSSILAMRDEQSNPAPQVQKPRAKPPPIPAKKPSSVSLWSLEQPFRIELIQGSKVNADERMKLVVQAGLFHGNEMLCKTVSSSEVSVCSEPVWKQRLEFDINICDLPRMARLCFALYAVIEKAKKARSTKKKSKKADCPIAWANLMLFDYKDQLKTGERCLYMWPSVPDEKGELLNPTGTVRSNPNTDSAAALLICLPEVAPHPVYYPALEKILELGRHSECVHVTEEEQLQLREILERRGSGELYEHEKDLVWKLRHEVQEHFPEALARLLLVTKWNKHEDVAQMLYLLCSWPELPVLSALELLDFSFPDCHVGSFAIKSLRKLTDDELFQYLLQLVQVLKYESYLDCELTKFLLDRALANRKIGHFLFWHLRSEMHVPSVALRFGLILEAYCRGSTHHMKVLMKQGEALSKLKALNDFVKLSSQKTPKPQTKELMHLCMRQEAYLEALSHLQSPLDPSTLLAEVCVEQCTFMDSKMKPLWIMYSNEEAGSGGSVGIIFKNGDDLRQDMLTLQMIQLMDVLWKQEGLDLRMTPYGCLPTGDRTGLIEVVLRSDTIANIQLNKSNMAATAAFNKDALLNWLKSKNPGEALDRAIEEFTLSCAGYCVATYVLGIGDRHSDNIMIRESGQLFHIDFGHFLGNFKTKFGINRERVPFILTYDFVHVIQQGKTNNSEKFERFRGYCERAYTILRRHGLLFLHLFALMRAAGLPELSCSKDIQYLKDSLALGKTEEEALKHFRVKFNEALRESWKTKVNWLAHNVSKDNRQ
Chain of PIK3Cδ/PIK3R1 (P27986 whole entry partner): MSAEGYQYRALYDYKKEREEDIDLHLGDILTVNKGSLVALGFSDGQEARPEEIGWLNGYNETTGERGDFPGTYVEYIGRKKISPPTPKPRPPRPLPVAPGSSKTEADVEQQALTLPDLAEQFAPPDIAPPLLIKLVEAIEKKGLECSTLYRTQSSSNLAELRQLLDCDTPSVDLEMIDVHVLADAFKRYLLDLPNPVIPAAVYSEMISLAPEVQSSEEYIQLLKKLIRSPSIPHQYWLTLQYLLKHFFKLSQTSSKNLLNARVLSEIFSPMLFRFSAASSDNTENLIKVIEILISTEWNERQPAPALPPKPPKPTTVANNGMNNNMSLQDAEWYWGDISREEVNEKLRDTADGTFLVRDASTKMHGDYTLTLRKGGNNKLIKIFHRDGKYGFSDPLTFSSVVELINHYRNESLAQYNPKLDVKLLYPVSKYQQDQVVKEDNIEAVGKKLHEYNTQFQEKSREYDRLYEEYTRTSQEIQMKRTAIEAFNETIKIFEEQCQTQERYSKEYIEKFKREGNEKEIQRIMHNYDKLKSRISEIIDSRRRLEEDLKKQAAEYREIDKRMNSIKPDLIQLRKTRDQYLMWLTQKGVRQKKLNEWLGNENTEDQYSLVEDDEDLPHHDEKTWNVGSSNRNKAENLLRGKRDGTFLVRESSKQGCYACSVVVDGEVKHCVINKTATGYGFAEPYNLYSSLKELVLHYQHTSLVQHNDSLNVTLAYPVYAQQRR

Chain of PKC delta (Q05655 whole entry): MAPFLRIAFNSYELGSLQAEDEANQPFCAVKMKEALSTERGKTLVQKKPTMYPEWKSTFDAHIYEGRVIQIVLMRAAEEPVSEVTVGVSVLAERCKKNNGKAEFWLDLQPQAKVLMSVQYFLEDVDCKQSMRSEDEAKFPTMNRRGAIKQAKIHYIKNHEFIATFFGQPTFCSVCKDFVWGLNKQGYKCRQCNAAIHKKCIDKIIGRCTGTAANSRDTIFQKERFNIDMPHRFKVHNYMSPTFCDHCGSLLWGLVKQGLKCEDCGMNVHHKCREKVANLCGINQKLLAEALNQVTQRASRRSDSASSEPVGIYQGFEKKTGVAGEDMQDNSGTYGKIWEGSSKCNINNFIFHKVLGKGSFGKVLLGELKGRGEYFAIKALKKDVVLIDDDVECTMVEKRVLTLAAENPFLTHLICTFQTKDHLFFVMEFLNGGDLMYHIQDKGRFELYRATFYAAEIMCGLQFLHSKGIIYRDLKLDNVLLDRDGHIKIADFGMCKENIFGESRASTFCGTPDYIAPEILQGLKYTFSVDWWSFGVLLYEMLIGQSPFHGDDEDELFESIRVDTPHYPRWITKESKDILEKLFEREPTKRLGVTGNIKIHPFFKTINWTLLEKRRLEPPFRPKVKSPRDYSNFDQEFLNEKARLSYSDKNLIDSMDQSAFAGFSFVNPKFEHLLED
Chain of AurB (AURKB) (Q96GD4 whole entry, species assumed): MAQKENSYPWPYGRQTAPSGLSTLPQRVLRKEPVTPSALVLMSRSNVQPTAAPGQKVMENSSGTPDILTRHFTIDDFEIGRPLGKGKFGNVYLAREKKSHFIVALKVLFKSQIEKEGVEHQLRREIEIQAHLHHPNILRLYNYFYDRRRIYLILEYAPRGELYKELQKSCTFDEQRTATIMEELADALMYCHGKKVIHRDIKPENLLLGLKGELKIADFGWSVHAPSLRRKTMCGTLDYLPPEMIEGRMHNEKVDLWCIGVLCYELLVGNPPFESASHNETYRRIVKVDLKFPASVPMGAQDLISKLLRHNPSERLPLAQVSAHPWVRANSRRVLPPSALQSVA
Chain of PIK3Cγ (P48736 whole entry): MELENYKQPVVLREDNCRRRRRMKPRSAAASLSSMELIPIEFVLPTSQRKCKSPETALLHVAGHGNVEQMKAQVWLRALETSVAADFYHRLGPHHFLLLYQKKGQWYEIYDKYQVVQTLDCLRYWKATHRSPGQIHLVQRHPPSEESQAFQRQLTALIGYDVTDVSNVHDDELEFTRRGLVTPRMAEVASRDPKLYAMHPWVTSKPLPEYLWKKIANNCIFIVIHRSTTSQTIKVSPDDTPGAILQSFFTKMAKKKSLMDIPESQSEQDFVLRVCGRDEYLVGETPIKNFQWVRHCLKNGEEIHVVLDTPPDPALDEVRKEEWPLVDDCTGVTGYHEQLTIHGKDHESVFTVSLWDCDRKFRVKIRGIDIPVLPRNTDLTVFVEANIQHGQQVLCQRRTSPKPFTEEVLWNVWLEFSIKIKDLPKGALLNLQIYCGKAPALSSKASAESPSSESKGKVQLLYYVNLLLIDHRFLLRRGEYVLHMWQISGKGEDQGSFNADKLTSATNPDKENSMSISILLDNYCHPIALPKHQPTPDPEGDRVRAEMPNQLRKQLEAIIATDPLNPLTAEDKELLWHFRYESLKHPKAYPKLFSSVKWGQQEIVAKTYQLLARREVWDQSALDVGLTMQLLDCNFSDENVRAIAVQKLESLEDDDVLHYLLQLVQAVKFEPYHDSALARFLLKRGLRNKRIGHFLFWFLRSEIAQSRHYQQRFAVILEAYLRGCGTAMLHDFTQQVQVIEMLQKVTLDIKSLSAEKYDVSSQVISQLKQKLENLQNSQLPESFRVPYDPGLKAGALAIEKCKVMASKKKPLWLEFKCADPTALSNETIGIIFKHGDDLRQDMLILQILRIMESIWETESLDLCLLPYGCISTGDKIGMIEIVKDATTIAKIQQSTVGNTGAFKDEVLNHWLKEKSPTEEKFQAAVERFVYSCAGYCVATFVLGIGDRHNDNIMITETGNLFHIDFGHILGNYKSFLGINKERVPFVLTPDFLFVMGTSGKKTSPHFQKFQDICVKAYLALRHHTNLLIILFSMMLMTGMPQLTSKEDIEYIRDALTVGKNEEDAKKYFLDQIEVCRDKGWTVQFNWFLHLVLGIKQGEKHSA

CCCCCCCCCCc1ccc2c(c1)C[C@@H](CO)NC(=O)[C@H](C(C)C)N2C
Kd (PKC beta): 58.2 nM
Kd (PKC delta): 185 nM
Kd (PKC epsilon): 187 nM
Kd (PKCalpha): 46.6 nM
Kd (PKC gamma): 140 nM

CCCCCCCCCCc1cccc2c1C[C@@H](CO)NC(=O)[C@H](C(C)C)N2C
Kd (PKC beta): 309 nM
Kd (PKC delta): 169 nM
Kd (PKC epsilon): 60 nM
Kd (PKCalpha; PKC alpha, read-out: Kd): 513 nM
Kd (PKC gamma; PKC gamma, read-out: Kd): 409 nM

CCCCCCCCC#Cc1cccc2c1C[C@@H](CO)NC(=O)[C@H](C(C)C)N2C
Kd (PKC beta): 1690 nM
Kd (PKC delta): 2100 nM
Kd (PKC epsilon): 2560 nM
Kd (PKCalpha; PKC alpha, read-out: Kd): 4530 nM
Kd (PKC gamma; PKC gamma, read-out: Kd): > 10000 nM

CC(C)C1C(=O)NC(CO)Cc2cc(NC(=O)C=CC=Cc3ccccc3)ccc2N1C (stereo not shown)
Kd (PKCalpha; PKC alpha, read-out: Kd): 15.8 nM

CC(C)[C@H]1C(=O)N[C@H](CO)Cc2cc(NC(=O)CCCCc3ccccc3)ccc2N1C
Kd (PKCalpha; PKC alpha, read-out: Kd): 34.2 nM

CC(C)[C@H]1C(=O)N[C@H](CO)Cc2cc(NC(=O)CCCCc3ccc(C(F)(F)F)cc3)ccc2N1C
Kd (PKCalpha): 12.5 nM

CC(C)[C@H]1C(=O)N[C@H](CO)Cc2cc(NC(=O)CCCCc3cc(C(F)(F)F)cc(C(F)(F)F)c3)ccc2N1C
Kd (PKCalpha; PKC alpha, read-out: Kd): 7.8 nM

CC(C)[C@H]1C(=O)N[C@H](CO)Cc2cc(NC(=O)CCCCc3ccc(/C=C/C(F)(F)C(F)(F)C(F)(F)C(F)(F)C(F)(F)C(F)(F)F)cc3)ccc2N1C
Kd (PKCalpha; PKC alpha, read-out: Kd): 11.2 nM

CC(C)[C@H]1C(=O)N[C@H](CO)Cc2cc(NC(=O)CCCCc3ccc(CCC(F)(F)C(F)(F)C(F)(F)C(F)(F)C(F)(F)C(F)(F)F)cc3)ccc2N1C
Kd (PKCalpha; PKC alpha, read-out: Kd): 9.2 nM

CC(C)[C@H]1C(=O)N[C@H](CO)Cc2ccccc2N1C
Kd (PKCalpha; PKC alpha, read-out: Kd): 334 nM

CCCCCCCCc1ccc2c3c(c[nH]c13)CC[C@@H](CO)NC(=O)[C@H](C(C)C)N2C
Kd (PKC beta): 0.4 nM
Kd (PKC delta): 0.8 nM
Kd (PKC epsilon): 1 nM
Kd (PKCalpha; PKC alpha, read-out: Kd): 0.5 nM
Kd (PKC gamma; PKC gamma, read-out: Kd): 1.2 nM

CCCCCCCCC#Cc1ccccc1-c1ccc2c(c1)N(C)[C@@H](C(C)C)C(=O)NC(CO)C2 (stereo partly shown)
Kd (PKCalpha; PKC alpha, read-out: Kd): 3.6 nM

CCCCC#Cc1ccccc1-c1ccc2c(c1)N(C)[C@@H](C(C)C)C(=O)NC(CO)C2 (stereo partly shown)
Kd (PKCalpha; PKC alpha, read-out: Kd): 3.1 nM

CCCCCCCCC#Cc1cccc(-c2ccc3c(c2)C[C@@H](CO)NC(=O)[C@H](C(C)C)N3C)c1
Kd (PKCalpha; PKC alpha, read-out: Kd): 309 nM

CCCCCCCCC#Cc1cccc(-c2ccc3c(c2)N(C)[C@@H](C(C)C)C(=O)N[C@H](CO)C3)c1
Kd (PKCalpha; PKC alpha, read-out: Kd): 5.9 nM

CCCCC#Cc1cccc(-c2ccc3c(c2)N(C)[C@@H](C(C)C)C(=O)N[C@H](CO)C3)c1
Kd (PKCalpha; PKC alpha, read-out: Kd): 3 nM

CCCCCCCCC#Cc1ccc(-c2ccc3c(c2)C[C@@H](CO)NC(=O)[C@H](C(C)C)N3C)cc1
Kd (PKCalpha; PKC alpha, read-out: Kd): 703 nM

CCCCCCCCC#Cc1ccc(-c2ccc3c(c2)C[C@@H](CO)NC(=O)[C@H](C(C)C)N3C)s1
Kd (PKCalpha; PKC alpha, read-out: Kd): 396 nM

CCCCCCCCC#Cc1ccc(-c2ccc3c(c2)N(C)[C@@H](C(C)C)C(=O)N[C@H](CO)C3)s1
Kd (PKCalpha; PKC alpha, read-out: Kd): 25 nM

CC(C)[C@H]1C(=O)N[C@H](CO)Cc2ccc(-c3ccc(NC(=O)OC(C)(C)C)cc3)cc2N1C
Kd (PKCalpha; PKC alpha, read-out: Kd): 31.5 nM

CC(C)[C@H]1C(=O)N[C@H](CO)Cc2ccc(NC(=O)c3ccccc3)cc2N1C
Kd (PKCalpha; PKC alpha, read-out: Kd): 174 nM

CC(C)[C@H]1C(=O)N[C@H](CO)Cc2ccc(NC(=O)/C=C/c3ccccc3)cc2N1C
Kd (PKCalpha; PKC alpha, read-out: Kd): 114 nM

CC(C)[C@H]1C(=O)NC(CO)Cc2ccc(NC(=O)CCc3ccccc3)cc2N1C (stereo partly shown)
Kd (PKCalpha; PKC alpha, read-out: Kd): 116 nM

CC(C)[C@H]1C(=O)N[C@H](CO)Cc2ccc(NC(=O)/C=C/C=C/c3ccccc3)cc2N1C
Kd (PKCalpha; PKC alpha, read-out: Kd): 49.8 nM

CC(C)[C@H]1C(=O)N[C@H](CO)Cc2ccc(NC(=O)CCCCc3ccccc3)cc2N1C
Kd (PKCalpha; PKC alpha, read-out: Kd): 18.3 nM

CC(C)[C@H]1C(=O)NC(CO)Cc2ccc(NC(=O)c3ccc(-c4ccccc4)cc3)cc2N1C (stereo partly shown)
Kd (PKCalpha; PKC alpha, read-out: Kd): 25.9 nM

CCCCc1ccc(C(=O)Nc2ccc3c(c2)N(C)[C@@H](C(C)C)C(=O)NC(CO)C3)cc1 (stereo partly shown)
Kd (PKCalpha; PKC alpha, read-out: Kd): 9.5 nM

CCCCC#Cc1cccc(C(=O)Nc2ccc3c(c2)N(C)[C@@H](C(C)C)C(=O)NC(CO)C3)c1 (stereo partly shown)
Kd (PKCalpha; PKC alpha, read-out: Kd): 4.1 nM

CCCCCCCCc1cccc(C(=O)Nc2ccc3c(c2)N(C)[C@@H](C(C)C)C(=O)NC(CO)C3)c1 (stereo partly shown)
Kd (PKCalpha; PKC alpha, read-out: Kd): 3.2 nM

CC(C)[C@H]1C(=O)NC(CO)Cc2ccc(NCc3ccccc3)cc2N1C (stereo partly shown)
Kd (PKCalpha; PKC alpha, read-out: Kd): 3.8 nM

Cc1csc(-c2nnc(Nc3ccc(Oc4ncccc4-c4ccnc(N)n4)cc3)c3ccccc23)c1 [AMG900]
Kd (AurB (AURKB)): 0.393 nM
ka (AurB (AURKB)): 58800 M⁻¹ s⁻¹
kd (AurB (AURKB)): 2.31e-05 s⁻¹
ka (AurA (AURKA)): 220000 M⁻¹ s⁻¹
kd (AurA (AURKA)): 0.000261 s⁻¹
log(ka) (AurA (AURKA)): 5.34
log(kd) (AurA (AURKA)): −3.58

COc1ccc(-c2ccc3c(N4CCOC[C@@H]4C)nc(N4CCOC[C@@H]4C)nc3n2)cc1CO [AZD-8055]
Kd (PIK3Cγ): 92.5 nM
ka (PIK3Cγ): 1.59e+06 M⁻¹ s⁻¹
kd (PIK3Cγ): 0.147 s⁻¹
log(ka) (PIK3Cγ): 6.20
log(kd) (PIK3Cγ): −0.83
residence time (τ) (PIK3Cγ): 7 s
Kd (PIK3Cα/PIK3R1): 9.4 nM
ka (PIK3Cα/PIK3R1): 3.61e+06 M⁻¹ s⁻¹
kd (PIK3Cα/PIK3R1): 0.0339 s⁻¹
log(ka) (PIK3Cα/PIK3R1): 6.56
log(kd) (PIK3Cα/PIK3R1): −1.47
residence time (τ) (PIK3Cα/PIK3R1): 29 s
Kd (PIK3Cδ/PIK3R1): 33.6 nM
ka (PIK3Cδ/PIK3R1): 1.93e+06 M⁻¹ s⁻¹
kd (PIK3Cδ/PIK3R1): 0.065 s⁻¹
log(ka) (PIK3Cδ/PIK3R1): 6.29
log(kd) (PIK3Cδ/PIK3R1): −1.19
residence time (τ) (PIK3Cδ/PIK3R1): 15 s

Cc1nc(NC(=O)N2CCC[C@H]2C(N)=O)sc1-c1ccnc(C(C)(C)C(F)(F)F)c1 [Alpelisib]
ka (PIK3Cγ): 4.05e+06 M⁻¹ s⁻¹
kd (PIK3Cγ): 0.0395 s⁻¹
log(ka) (PIK3Cγ): 6.61
log(kd) (PIK3Cγ): −1.40
ka (PIK3Cδ/PIK3R1): 6.16e+06 M⁻¹ s⁻¹
kd (PIK3Cδ/PIK3R1): 0.0641 s⁻¹
log(ka) (PIK3Cδ/PIK3R1): 6.79
log(kd) (PIK3Cδ/PIK3R1): −1.19

Nc1cc(C(F)(F)F)c(-c2cc(N3CCOCC3)nc(N3CCOCC3)n2)cn1 [Buparlisib]
ka (PIK3Cα/PIK3R1): 3.26e+06 M⁻¹ s⁻¹
kd (PIK3Cα/PIK3R1): 0.0209 s⁻¹
log(ka) (PIK3Cα/PIK3R1): 6.51
log(kd) (PIK3Cα/PIK3R1): −1.68

Cn1c(=O)n(-c2ccc(C(C)(C)C#N)cc2)c2c3cc(-c4cnc5ccccc5c4)ccc3ncc21 [Dactolisib]
ka (PIK3Cγ): 589000 M⁻¹ s⁻¹
kd (PIK3Cγ): 0.0433 s⁻¹
log(ka) (PIK3Cγ): 5.77
log(kd) (PIK3Cγ): −1.36
ka (PIK3Cα/PIK3R1): 2.3e+06 M⁻¹ s⁻¹
kd (PIK3Cα/PIK3R1): 0.0228 s⁻¹
log(ka) (PIK3Cα/PIK3R1): 6.36
log(kd) (PIK3Cα/PIK3R1): −1.64
ka (PIK3Cδ/PIK3R1): 1.52e+06 M⁻¹ s⁻¹
kd (PIK3Cδ/PIK3R1): 0.0327 s⁻¹
log(ka) (PIK3Cδ/PIK3R1): 6.16
log(kd) (PIK3Cδ/PIK3R1): −1.49

CO[C@@H](C(=O)N1Cc2n[nH]c(NC(=O)c3ccc(N4CCN(C)CC4)cc3)c2C1)c1ccccc1 [Danusertib]
ka (AurA (AURKA)): 512000 M⁻¹ s⁻¹
kd (AurA (AURKA)): 0.000868 s⁻¹
log(ka) (AurA (AURKA)): 5.71
log(kd) (AurA (AURKA)): −3.06

CCn1cc(-c2ccnc3[nH]c(-c4cccc(CN(C)C)c4)cc23)c(-c2ccc(NC(=O)N(C)C)cc2)n1 [GSK1070916]
Kd (AurB (AURKB)): 4.48 nM
ka (AurB (AURKB)): 14000 M⁻¹ s⁻¹
kd (AurB (AURKB)): 6.28e-05 s⁻¹

O=C(O)[C@]1(Cc2cccc(Nc3nccs3)n2)CC[C@@H](Oc2cccc(Cl)c2F)CC1 [MK5108]
ka (AurA (AURKA)): 3.41e+06 M⁻¹ s⁻¹
kd (AurA (AURKA)): 0.0155 s⁻¹
log(ka) (AurA (AURKA)): 6.53 and 6.56
log(kd) (AurA (AURKA)): −1.81
